Assay results: US20230085307A1, “PYRIDAZINONE COMPOUND AND HERBICIDE” (NISSAN CHEMICAL CORPORATION, priority 2019, published 2023)

Tests used:
persian speedwell [1] = test: Test Example 4: herbicidal effect by soil treatment (Table 19, symbol R); assay type: in vivo, Persian speedwell (Veronica persica); details: amount of applied herbicide 320 g/ha
Summary of the method: (§1)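 Three weeks of greenhouse growth at 25° C. to 30° C. followed a uniform surface spray of water-diluted emulsion at a predetermined herbicide amount. Seeds had been sown beforehand under about 1.5 cm of sterilized diluvial soil. Grading followed criteria set out in an earlier test.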

green foxtail [2] = test: Test Example 4: herbicidal effect by soil treatment (Table 19, symbol G); assay type: in vivo, green foxtail (Setaria viridis); details: amount of applied herbicide 320 g/ha
Summary of the method: as §1

windgrass [3] = test: Test Example 5: herbicidal effect by foliage application, plastic box (Table 20, symbol L); assay type: in vivo, windgrass (Apera spica-venti); details: foliage application after 14-day growth, evaluated three weeks after application; for herbicidal effect on L: windgrass (evaluation grade 0-5): 320 g/ha; for Herbicidal effect by foliage application, L: windgrass: amount of applied herbicide 320 g/ha
Summary of the method: (§2)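 Plants sown in sterilized diluvial soil and grown 14 days in a greenhouse at 25° C to 30° C, then sprayed on the foliage with the compound's emulsion diluted in water to a predetermined herbicide amount. Injury to weeds and crops scored three weeks after application on a visual rating scale.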

Italian ryegrass [4] = test: Test Example 4: herbicidal effect by soil treatment (Table 19, symbol K); assay type: in vivo, Italian ryegrass (Lolium multiflorum); details: amount of applied herbicide 320 g/ha
Summary of the method: as §1

late watergrass [5] = test: Test Example 1: herbicidal activity, application before weed generation under submerged conditions (Table 16, symbol A); assay type: in vivo, late watergrass (Echinochloa oryzicola); details: amount of applied herbicide 320 g/ha
Summary of the method: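 Emulsion formulation, water-diluted to set dose, was put onto the flooded surface (4 cm depth, alluvial soil) the same day weeds were sown and 2.5-leaf rice transplanted. After 3 weeks at 25-30 °C under glass, each species was rated 0 (≤5% kill) to 5 (≥90% kill).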

southern crabgrass = test: Test Example 5: herbicidal effect by foliage application, plastic box (Table 20, symbol F); assay type: in vivo, southern crabgrass (Digitaria ciliaris); details: foliage application after 14-day growth, evaluated three weeks after application; for herbicidal effect on F: southern crabgrass (evaluation grade 0-5): 320 g/ha; for Herbicidal effect by foliage application, F: southern crabgrass: amount of applied herbicide 320 g/ha
Summary of the method: as §2

rice flat sedge = test: Test Example 3: herbicidal effect by foliage application, Wagner pot (Table 18, symbol E); assay type: in vivo, rice flat sedge (Cyperus iria); details: 320 g/ha
Summary of the method: (§3)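 Plants were sown in alluvial soil held under 0.1–0.5 cm standing water and grown 14 days in a greenhouse at 25–30 °C. An emulsifiable formulation, water-diluted to the set dose, was then sprayed onto the foliage, and effects were scored three weeks later using previously defined criteria.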

late watergrass [6] = test: Test Example 2: herbicidal activity, application during weed generation under submerged conditions (Table 17, symbol A); assay type: in vivo, late watergrass (Echinochloa oryzicola); details: AAH 320 g/ha; application during weed generation, submerged conditions
Summary of the method: (§4)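 Steps: fill Wagner pots with alluvial soil; add water to give 4 cm depth; sow the species mixed; grow under glass at 25–30° C.; at 1–2 leaves apply water-diluted emulsion formulation to the water surface at a fixed herbicide amount; score after 3 weeks.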

lambsquarters = test: Test Example 5: herbicidal effect by foliage application, plastic box (Table 20, symbol O); assay type: in vivo, lambsquarters (Chenopodium album); details: foliage application after 14-day growth, evaluated three weeks after application; for herbicidal effect on O: lambsquarters (evaluation grade 0-5): 320 g/ha; for Herbicidal effect by foliage application, O: lambsquarters: amount of applied herbicide 320 g/ha
Summary of the method: as §2

Italian ryegrass [7] = test: Test Example 5: herbicidal effect by foliage application, plastic box (Table 20, symbol K); assay type: in vivo, Italian ryegrass (Lolium multiflorum); details: foliage application after 14-day growth, evaluated three weeks after application; for herbicidal effect on K: Italian ryegrass (evaluation grade 0-5): 320 g/ha; for Herbicidal effect by foliage application, K: Italian ryegrass: amount of applied herbicide 320 g/ha
Summary of the method: as §2

persian speedwell [8] = test: Test Example 5: herbicidal effect by foliage application, plastic box (Table 20, symbol R); assay type: in vivo, Persian speedwell (Veronica persica); details: foliage application after 14-day growth, evaluated three weeks after application; for herbicidal effect on R: persian speedwell (evaluation grade 0-5): 320 g/ha; for Herbicidal effect by foliage application, R: persian speedwell: amount of applied herbicide 320 g/ha
Summary of the method: as §2

oval-leafed pondweed = test: Test Example 2: herbicidal activity, application during weed generation under submerged conditions (Table 17, symbol C); assay type: in vivo, oval-leafed pondweed (Monochoria vaginalis); details: AAH 320 g/ha; application during weed generation, submerged conditions
Summary of the method: as §4

Japanese bulrush = test: Test Example 2: herbicidal activity, application during weed generation under submerged conditions (Table 17, symbol B); assay type: in vivo, Japanese bulrush (Schoenoplectus juncoides); details: AAH 320 g/ha; application during weed generation, submerged conditions
Summary of the method: as §4

green foxtail [9] = test: Test Example 5: herbicidal effect by foliage application, plastic box (Table 20, symbol G); assay type: in vivo, green foxtail (Setaria viridis); details: foliage application after 14-day growth, evaluated three weeks after application; for herbicidal effect on G: green foxtail (evaluation grade 0-5): 320 g/ha; for Herbicidal effect by foliage application, G: green foxtail: amount of applied herbicide 320 g/ha
Summary of the method: as §2

barnyard grass = test: Test Example 3: herbicidal effect by foliage application, Wagner pot (Table 18, symbol H); assay type: in vivo, barnyard grass (Echinochloa crus-galli); details: 320 g/ha
Summary of the method: as §3

chickweed = test: Test Example 4: herbicidal effect by soil treatment (Table 19, symbol P); assay type: in vivo, common chickweed (Stellaria media); details: amount of applied herbicide 320 g/ha
Summary of the method: as §1

windgrass [10] = test: Test Example 4: herbicidal effect by soil treatment (Table 19, symbol L); assay type: in vivo, windgrass (Apera spica-venti); details: amount of applied herbicide 320 g/ha
Summary of the method: as §1

Row | Structure (SMILES) | Herbicidal effect by soil treatment, R: persian speedwell (persian speedwell [1]) | Herbicidal effect by soil treatment, G: green foxtail (green foxtail [2]) | herbicidal effect on L: windgrass (evaluation grade 0-5) (windgrass [3]) | Herbicidal effect by soil treatment, K: Italian ryegrass (Italian ryegrass [4]) | Herbicidal effect, A: late watergrass (late watergrass [5]) | herbicidal effect on F: southern crabgrass (evaluation grade 0-5) (southern crabgrass) | herbicidal effect on rice flat sedge (E) (rice flat sedge) | herbicidal effect rating, A: late watergrass (late watergrass [6]) | herbicidal effect on O: lambsquarters (evaluation grade 0-5) (lambsquarters) | herbicidal effect on K: Italian ryegrass (evaluation grade 0-5) (Italian ryegrass [7]) | herbicidal effect on R: persian speedwell (evaluation grade 0-5) (persian speedwell [8]) | herbicidal effect rating, C: oval-leafed pondweed (oval-leafed pondweed) | herbicidal effect rating, B: Japanese bulrush (Japanese bulrush) | herbicidal effect on G: green foxtail (evaluation grade 0-5) (green foxtail [9]) | herbicidal effect on barnyard grass (H) (barnyard grass) | Herbicidal effect by soil treatment, P: chickweed (chickweed) | Herbicidal effect by soil treatment, L: windgrass (windgrass [10]) | Herbicidal effect by foliage application, L: windgrass (windgrass [3]) | Herbicidal effect by foliage application, F: southern crabgrass (southern crabgrass) | Herbicidal effect by foliage application, O: lambsquarters (lambsquarters) | further results
1 | CCCOc1ccc(-c2sc3c(Cl)cccc3c2-c2c(OC(=O)CCC)c(C)nn(C)c2=O)cc1 [4-028] | 1 (Herbicidal rate of 5% or more and less than 20%) | 0 (Herbicidal rate of 5% or less (almost no effect)) | 0 (Herbicidal rate of 5% or less (almost no effect)) | 0 (Herbicidal rate of 5% or less (almost no effect)) | 3 (Herbicidal rate of 40% or more and less than 70%) | 0 (Herbicidal rate of 5% or less (almost no effect)) | 5 (Herbicidal rate of 90% or more (almost completely withered)) | 3 (Herbicidal rate of 40% or more and less than 70%) | 5 (Herbicidal rate of 90% or more (almost completely withered)) | 2 (Herbicidal rate of 20% or more and less than 40%) | 5 (Herbicidal rate of 90% or more (almost completely withered)) | 0 (Herbicidal rate of 5% or less (almost no effect)) | 3 (Herbicidal rate of 40% or more and less than 70%) | 3 (Herbicidal rate of 40% or more and less than 70%) | 5 (Herbicidal rate of 90% or more (almost completely withered)) | 0 (Herbicidal rate of 5% or less (almost no effect)) | 0 (Herbicidal rate of 5% or less (almost no effect)) | – | – | – | –
2 | CCCC(=O)Oc1c(C)nn(C)c(=O)c1-c1c(-c2ccc(SC)cc2)sc2c(F)cccc12 [4-051] | 5 (Herbicidal rate of 90% or more (almost completely withered)) | 1 (Herbicidal rate of 5% or more and less than 20%) | 5 (Herbicidal rate of 90% or more (almost completely withered)) | 4 (Herbicidal rate of 70% or more and less than 90%) | 4 (Herbicidal rate of 70% or more and less than 90%) | 0 (Herbicidal rate of 5% or less (almost no effect)) | 3 (Herbicidal rate of 40% or more and less than 70%) | 3 (Herbicidal rate of 40% or more and less than 70%) | 5 (Herbicidal rate of 90% or more (almost completely withered)) | 4 (Herbicidal rate of 70% or more and less than 90%) | 5 (Herbicidal rate of 90% or more (almost completely withered)) | 0 (Herbicidal rate of 5% or less (almost no effect)) | 3 (Herbicidal rate of 40% or more and less than 70%) | 3 (Herbicidal rate of 40% or more and less than 70%) | 5 (Herbicidal rate of 90% or more (almost completely withered)) | 4 (Herbicidal rate of 70% or more and less than 90%) | 0 (Herbicidal rate of 5% or less (almost no effect)) | – | – | – | –
3 | Cc1nn(C)c(=O)c(-c2c(-c3ccccc3OC(F)(F)F)sc3c(Cl)cccc23)c1O [4-076] | 3 (Herbicidal rate of 40% or more and less than 70%) | 0 (Herbicidal rate of 5% or less (almost no effect)) | – | 0 (Herbicidal rate of 5% or less (almost no effect)) | 0 (Herbicidal rate of 5% or less (almost no effect)) | – | 3 (Herbicidal rate of 40% or more and less than 70%) | 3 (Herbicidal rate of 40% or more and less than 70%) | – | – | – | 0 (Herbicidal rate of 5% or less (almost no effect)) | 2 (Herbicidal rate of 20% or more and less than 40%) | – | 4 (Herbicidal rate of 70% or more and less than 90%) | 1 (Herbicidal rate of 5% or more and less than 20%) | 0 (Herbicidal rate of 5% or less (almost no effect)) | 0 (Herbicidal rate of 5% or less (almost no effect)) | 1 (Herbicidal rate of 5% or more and less than 20%) | 4 (Herbicidal rate of 70% or more and less than 90%) | Herbicidal effect by foliage application, K: Italian ryegrass (Italian ryegrass [7]): 0 (Herbicidal rate of 5% or less (almost no effect)); Herbicidal effect by foliage application, R: persian speedwell (persian speedwell [8]): 5 (Herbicidal rate of 90% or more (almost completely withered)); Herbicidal effect by foliage application, G: green foxtail (green foxtail [9]): 4 (Herbicidal rate of 70% or more and less than 90%)
4 | COc1ccc(-c2sc3c(C)cccc3c2-c2c(O)c(C)nn(C)c2=O)cc1 [4-110] | 4 (Herbicidal rate of 70% or more and less than 90%) | 0 (Herbicidal rate of 5% or less (almost no effect)) | – | 5 (Herbicidal rate of 90% or more (almost completely withered)) | 5 (Herbicidal rate of 90% or more (almost completely withered)) | – | 5 (Herbicidal rate of 90% or more (almost completely withered)) | 0 (Herbicidal rate of 5% or less (almost no effect)) | – | – | – | 5 (Herbicidal rate of 90% or more (almost completely withered)) | 3 (Herbicidal rate of 40% or more and less than 70%) | – | 5 (Herbicidal rate of 90% or more (almost completely withered)) | 5 (Herbicidal rate of 90% or more (almost completely withered)) | 0 (Herbicidal rate of 5% or less (almost no effect)) | 4 (Herbicidal rate of 70% or more and less than 90%) | 1 (Herbicidal rate of 5% or more and less than 20%) | 5 (Herbicidal rate of 90% or more (almost completely withered)) | Herbicidal effect by foliage application, K: Italian ryegrass (Italian ryegrass [7]): 5 (Herbicidal rate of 90% or more (almost completely withered)); Herbicidal effect by foliage application, R: persian speedwell (persian speedwell [8]): 5 (Herbicidal rate of 90% or more (almost completely withered)); Herbicidal effect by foliage application, G: green foxtail (green foxtail [9]): 3 (Herbicidal rate of 40% or more and less than 70%)
